Assay results as given in patent US20210315969A1, “GLYCOPROTEINS HAVING LIPID MOBILIZING PROPERTIES AND THERAPEUTIC USES THEREOF” (Aston University, priority 2008, published 2021).

Columns and labels:
adipocytes = assay: Expression of phospho HSL / HSL in adipocytes incubated 3 h with ZAG or isoprenaline; type: cell-based, mice
murine myotubes = assay: Protein degradation and synthesis in myotubes subjected to high glucose; type: cell-based
Protocol: FIGS. 18A and 18B is a graphical diagram showing phenylalanine release (FIG. 18A) and protein synthesis (FIG. 18B) in C2Cl2 myotubes treated with and without ZAG for 4 h in the presence of various concentrations of glucose. Statistically significant c, P<0.001 from control; f, P<0.001 from glucose alone.
Statistically significant b, P<0.01 and c, P<0.001 from control; e, P<0.05 and f, P<0.001 from glucose alone.
Statistically significant b, P<0.01 and c, P<0.001 from control; e, P<0.05 and f, P<:0.001 from glucose alone; I, P<0.001 from glucose+SR.
This utilizes murine myotubes subjected. to high concentrations of glucose (10 or 25 mM).

epididymal adipocytes = assay: Lipolytic assay (glycerol release) in isolated mouse adipocytes; type: cell-based, mice; settings: any adipocyte group
Protocol: Cell Culture and Purification of ZAG—Single-cell suspensions of white adipocytes were prepared from minced adipose deposits by incubation at 37° C. for […] in Krebs-Ringer biocarbonate buffer containing 1.5 ingml^−1 collagenase, and 4% bovine serum albumin under an atmosphere of 95% oxygen:5% CO2 as previously described. For time-course studies adipocytes were suspended in DMEM containing 10% fetal calf serum at a concentration of 10^5 cells ml^−1 and maintained under an atmosphere of 10% CO2 in air at 37° C. Human 293 cells transfected with a plasmid containing human ZAG were seeded at a concentration of 10^5 cells ml^−1 in FreeStyle medium and maintained under an atmosphere of 5% CO2 in air at 37° C. Maximal protein levels (16 μgml^−1) were obtained after 14 days of culture. […]
Lipolytic Assay—Samples to be assayed were incubated with 10^5 to 2×10^5 adipocytes for 2 h in 1 ml Krebs-Ringer bicarbonate buffer, pH 7.2. The concentration of glycerol released was determined enzymatically by the method of Wieland (Wieland, O. Glycerol UV method. In Methods of Enzymatic Analysis (ed. Bergmeyer, H. U.) (Academic Press, London, UK, pp 1404-1409, 1974)). Control samples containing adipocytes alone were analysed to determine the spontaneous glycerol release. Activity was expressed as nmol glycerol released/10^5 adipocytes/2 h.

## COc1cccc(-c2cc(=O)c3ccccc3o2)c1N [PD98059]
adipocytes; PD98059 10 μM, adipocytes incubated with ZAG for 3 h
  effect on ZAG-induced expression of HSL in ep adipocytes: attenuated the increase in expression of HSL

## CCc1ccccc1OC[C@@H](O)CN[C@H]1CCCc2ccccc21 [SR59230A]
Murine myotubes; 10 and 25 mM glucose
  combination of ZAG and SR59230A on glucose induced protein degradation: additive rather than antagonistic
Murine myotubes; myotubes
  protein degradation induced by 10 and 25 mM glucose: attenuated
Murine myotubes; with 10 mM glucose
  protein synthesis: causes an increase in the depression of protein synthesis

## CC(C)NCC(O)c1ccc(O)c(O)c1 (stereo not drawn) [isoprenaline]
Epididymal adipocytes
  extent of stimulation of lipolysis, isoprenaline versus ZAG: no significant difference
adipocytes; 3 h, isoprenaline 10 μM or ZAG 0.46 μM
  expression of phospho HSL in adipocytes: not
